Patent US20140051635A1, “COMBINATION THERAPY FOR TREATMENT OF CANCER” (UNIVERSITY OF SOUTH ALABAMA, priority 2011, published 2014)
Read-outs that look alike come from different tables or passages of the source.

Experiments:
[1] = tested on: SPARC expression in colon cancer cell lines and primary colon cancers; details: colon cancer cell lines and primary colon cancers with SPARC promoter hypermethylation; cited from earlier work
[2] = tested on: advanced or metastatic solid tumors; details: human, in vivo
Description: Eligible patients include those with solid tumors that progressed or were stable as best response on at least one previous therapy. […] Further criteria included: female and male patients; age≧19 years; ECOG PS≦2; adequate bone marrow, liver and heart function; and signed written-informed consent.
Serum and/or tissue samples, where appropriate, were collected for correlative studies.
Outcome evaluation for primary endpoints included: type, incidence, severity, timing, seriousness, and relatedness of adverse events, and laboratory abnormalities; and objective response rate. Outcome evaluation for secondary endpoints included: progression-free survival (PFS); and expression of tissue SPARC protein. Statistical Analysis included the standard 3+3 design. Patients were accrued to each dose level in cohorts of up to 3-6. Escalation was continued until a dose limiting toxicity (DLT) was observed or the highest dose-level was reached. The best response, including complete response (CR), partial response (PR), stable disease (SD), or progression of disease (PD), for each patient was determined. Descriptive statistics were used to summarize all patient characteristics, treatment administration and compliance, and protein biomarkers. Safety data were determined for all patients receiving at least 1 dose of study treatment.

[3] = mice; cited from earlier work
[4] = rats; cited from earlier work
[5] = cited from earlier work
[6] = parenteral, administered weekly; cited from earlier work
MDS = MDS patients; cited from earlier work
AML = details: 27 patients assigned to azacitidine; cited from earlier work
higher-risk MDS = details: cited from earlier work
[7] = tested on: breast cancer, patients pre-treated with doxorubicin; details: cited from earlier work

Nc1ncn([C@H]2C[C@H](O)[C@@H](CO)O2)c(=O)n1 [5Aza-dC]
SPARC expression [1]: able to upregulate SPARC expression in most cases

Nc1ncn([C@@H]2O[C@H](CO)[C@@H](O)[C@H]2O)c(=O)n1 [azacitidine]
maximum tolerated dose of azacitadine in this regimen [2]: 75 mg/m^2
embryotoxicity and reproductive performance [3]: embryotoxic and reduced the reproductive performance
embryotoxicity and reproductive performance [4]: embryotoxic and reduced the reproductive performance
systemic IV clearance ([5]; 75 mg/m^2 IV): 147 L/h
bioavailability for the SC dose ([5]; 75 mg/m^2 SC vs IV): ~89%
tolerability ([5]; 75 mg/m^2 single SC injection or IV infusion over 10 minutes): generally well-tolerated
maximum tolerated doses [6]: up to 500 mg/m^2
partial remission (MDS): rare
median survival time (AML): 19.3 months
median overall survival (higher-risk MDS; 75 mg/m^2/day x 7 days in 28 day cycles, N=179): 24.4 months
two-year survival (higher-risk MDS; azacitidine arm): 51%
tolerability (higher-risk MDS; in vivo): well tolerated

CC(=O)O[C@@]12CO[C@@H]1C[C@H](O)[C@@]1(C)C(=O)[C@H](O)C3=C(C)[C@@H](OC(=O)[C@H](O)[C@@H](NC(=O)OC(C)(C)C)c4ccccc4)C[C@@](O)([C@@H](OC(=O)c4ccccc4)[C@H]21)C3(C)C [docetaxel]
median overall survival [7]: 11.4 months
median time to disease progression [7]: 4.4 months
